Starred links: 1 amine or outer side, 2 acyl side, 3 side chain; linkers in the order of their positions; H or OH if unused. Non-standard residues stand in square brackets, D forms with d. Residues, ends and D or L forms follow the SMILES beside them. ξ: configuration not given here. LeuΨ(ξCHOHCH2)Val = CC(C)C[C@H](N[*:1])C(O)C[C@H](C(=O)[*:2])C(C)C; X2 = CC(=O)O[C@@H](CC(=O)[*:2])[C@H](CC(C)C)N[*:1]; Sta(3ξ) = CC(C)C[C@H](N[*:1])C(O)CC(=O)[*:2]; X3 = CC(C)C[C@H](N[*:1])[C@H](O)CC(=O)[*:2]; X4 = O=C(CC(O)[C@H](Cc1ccccc1)N[*:1])[*:2]; X5 = O=C(CC(O)[C@H](CC1CCCCC1)N[*:1])[*:2]; Sta = CC(C)C[C@H](N)[C@@H](O)CC(=O)O; X1 = CC(C)CC(N[*:1])C(O)CC(=O)[*:2]; Tle = CC(C)(C)[C@H](N)C(=O)O
Target: Beta-secretase 1 (Homo sapiens, UniProt P56817)
Sequence (P56817 whole entry): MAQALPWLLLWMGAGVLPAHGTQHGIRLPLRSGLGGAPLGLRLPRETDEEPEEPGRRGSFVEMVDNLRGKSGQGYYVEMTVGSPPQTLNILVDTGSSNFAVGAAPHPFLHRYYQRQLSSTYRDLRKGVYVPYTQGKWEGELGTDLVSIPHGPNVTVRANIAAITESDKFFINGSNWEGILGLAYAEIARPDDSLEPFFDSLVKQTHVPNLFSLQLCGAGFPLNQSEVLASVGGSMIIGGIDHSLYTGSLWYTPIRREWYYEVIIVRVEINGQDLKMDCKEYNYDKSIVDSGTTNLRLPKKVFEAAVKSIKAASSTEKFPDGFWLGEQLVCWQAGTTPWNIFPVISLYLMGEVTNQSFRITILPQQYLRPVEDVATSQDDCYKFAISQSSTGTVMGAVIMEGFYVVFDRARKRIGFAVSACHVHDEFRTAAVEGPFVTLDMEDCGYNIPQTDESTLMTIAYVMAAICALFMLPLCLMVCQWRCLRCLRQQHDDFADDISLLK
Assay: Inhibition of human brain beta-secretase, using MBPC125Swe (maltose-binding-protein C-125 Swedish) assay
Type: biochemical

Compound	IC50
CSCC[C@H](NC(=O)[C@@H](NC(C)=O)C(C)C)C(=O)NC(CC(C)C)C(O)CC(=O)N1CCC[C@@H]1C(=O)N[C@@H](C)C(=O)N[C@@H](CCC(=O)O)C(=O)N[C@@H](Cc1ccccc1)C(=O)O (some centres not stated)	> 200 µM
CSCC[C@H](NC(=O)[C@@H](NC(C)=O)C(C)C)C(=O)NC(CC(C)C)C(O)CC(=O)N[C@H](C(=O)O)C(C)C (some centres not stated)	> 100 µM
CSCC[C@H](NC(=O)[C@@H](NC(C)=O)C(C)C)C(=O)N[C@@H](CC(C)C)C(O)C[C@H](C(=O)N[C@@H](C)C(=O)N[C@@H](CCC(=O)O)C(=O)N[C@@H](Cc1ccccc1)C(=O)O)C(C)C (some centres not stated) (Ac-VM[LeuΨ(ξCHOHCH2)Val]AEF-OH)	0.02 µM
CSCC[C@H](NC(=O)[C@@H](NC(C)=O)C(C)C)C(=O)N[C@@H](CC(C)C)C(O)CC(=O)N[C@H](C(=O)N[C@@H](C)C(=O)N[C@@H](C)C(=O)N[C@@H](Cc1ccccc1)C(=O)O)C(C)C (some centres not stated) (Ac-VM[Sta(3ξ)]VAAF-OH)	2 µM
CSCC[C@H](NC(=O)[C@@H](NC(C)=O)C(C)C)C(=O)NC(CC(C)C)C(O)CC(=O)N[C@@H](C)C(=O)N[C@@H](C)C(=O)N[C@@H](CCC(=O)O)C(=O)N[C@@H](Cc1ccccc1)C(=O)O (some centres not stated) (Ac-VM[X1]AAEF-OH)	5 µM
CSCC[C@H](NC(=O)[C@@H](NC(C)=O)C(C)C)C(=O)NC(CC(C)C)C(O)CC(=O)N[C@H](C(=O)N[C@@H](C)C(=O)O)C(C)C (some centres not stated) (Ac-VM[X1]VA-OH)	> 100 µM
CSCC[C@H](NC(=O)[C@@H](NC(C)=O)C(C)C)C(=O)NC(CC(C)C)C(O)CC(=O)N[C@H](C(=O)N[C@@H](C)C(=O)N[C@@H](CCC(=O)O)C(=O)N[C@@H](Cc1ccccc1)C(=O)O)C(C)C (some centres not stated) (Ac-VM[X1]VAEF-OH)	0.3 µM
CC(=O)N[C@H](C(=O)N[C@@H](CC(N)=O)C(=O)NC(CC(C)C)C(O)CC(=O)N[C@H](C(=O)N[C@@H](C)C(=O)N[C@@H](CCC(=O)O)C(=O)N[C@@H](Cc1ccccc1)C(=O)O)C(C)C)C(C)C (some centres not stated) (Ac-VN[X1]VAEF-OH)	0.5 µM
CC(C)C[C@H](NC(=O)[C@H](CC(N)=O)NC(=O)[C@@H](NC(=O)[C@@H](N)CCC(=O)O)C(C)C)C(O)CC(=O)N[C@H](C(=O)N[C@@H](C)C(=O)N[C@@H](CCC(=O)O)C(=O)N[C@@H](Cc1ccccc1)C(=O)O)C(C)C (some centres not stated) (H-EVN[Sta(3ξ)]VAEF-OH)	0.04 µM
CC[C@H](C)[C@H](NC(=O)[C@H](CCC(=O)O)NC(=O)[C@H](CCC(=O)O)NC(=O)[C@@H](NC(=O)[C@@H](N)CCCCN)[C@@H](C)O)C(=O)N[C@@H](CO)C(=O)N[C@@H](CCC(=O)O)C(=O)N[C@H](C(=O)N[C@@H](CC(N)=O)C(=O)N[C@@H](CC(C)C)[C@@H](O)CC(=O)N[C@@H](C)C(=O)N[C@@H](C)C(=O)N[C@@H](CCC(=O)O)C(=O)N[C@@H](Cc1ccccc1)C(=O)O)C(C)C (H-KTEEISEVN[Sta]AAEF-OH)	0.5 µM
CC[C@H](C)[C@H](NC(=O)[C@H](CCC(=O)O)NC(=O)[C@H](CCC(=O)O)NC(=O)[C@@H](NC(=O)[C@@H](N)CCCCN)[C@@H](C)O)C(=O)N[C@@H](CO)C(=O)N[C@@H](CCC(=O)O)C(=O)N[C@H](C(=O)N[C@@H](CC(N)=O)C(=O)N[C@@H](CC(C)C)[C@@H](O)CC(=O)N[C@@H](CC(=O)O)C(=O)N[C@@H](C)C(=O)N[C@@H](CCC(=O)O)C(=O)N[C@@H](Cc1ccccc1)C(=O)N[C@@H](CCCN=C(N)N)C(=O)O)C(C)C (H-KTEEISEVN[Sta]DAEFR-OH)	60 µM
CC[C@H](C)[C@H](NC(=O)[C@H](CCC(=O)O)NC(=O)[C@H](CCC(=O)O)NC(=O)[C@@H](NC(=O)[C@@H](N)CCCCN)[C@@H](C)O)C(=O)N[C@@H](CO)C(=O)N[C@@H](CCC(=O)O)C(=O)N[C@H](C(=O)N[C@@H](CC(N)=O)C(=O)N[C@@H](CC(C)C)[C@H](CC(=O)N[C@@H](CC(=O)O)C(=O)N[C@@H](C)C(=O)N[C@@H](CCC(=O)O)C(=O)N[C@@H](Cc1ccccc1)C(=O)O)OC(C)=O)C(C)C (H-KTEEISEVN[X2]DAEF-OH)	> 200 µM
CC[C@H](C)[C@H](NC(=O)[C@H](CCC(=O)O)NC(=O)[C@H](CCC(=O)O)NC(=O)[C@@H](NC(=O)[C@@H](N)CCCCN)[C@@H](C)O)C(=O)N[C@@H](CO)C(=O)N[C@@H](CCC(=O)O)C(=O)N[C@H](C(=O)N[C@@H](CC(N)=O)C(=O)N[C@@H](CC(C)C)[C@H](O)CC(=O)N[C@@H](CC(=O)O)C(=O)N[C@@H](C)C(=O)N[C@@H](CCC(=O)O)C(=O)N[C@@H](Cc1ccccc1)C(=O)O)C(C)C (H-KTEEISEVN[X3]DAEF-OH)	> 200 µM
H-TNIKTEEISEVNADAEFR-OH	> 200 µM
H-TNIKTEEISEVNEDAEFR-OH	> 200 µM
H-TNIKTEEISEVNGDAEFR-OH	> 200 µM
H-TNIKTEEISEVNLKAEFR-OH	40 µM
H-TNIKTEEISEVNLLAEFR-OH	45 µM
H-TNIKTEEISEVNMDAEFR-OH	> 200 µM

Continued, values first:

IC50	Compound
100 µM	CSCC[C@H](NC(=O)[C@@H](NC(C)=O)C(C)C)C(=O)NC(CC(C)C)C(O)CC(=O)N[C@H](C(=O)N[C@@H](C)C(=O)N[C@@H](CCC(=O)O)C(=O)N[C@@H](Cc1ccccc1)C(=O)O)[C@H](C)O (some centres not stated)
> 100 µM	CSCC[C@H](NC(=O)[C@@H](NC(C)=O)C(C)C)C(=O)N[C@@H](CC(C)C)C(O)CC(=O)N[C@@H](CC(=O)O)C(=O)N[C@@H](C)C(=O)N[C@@H](CCC(=O)O)C(=O)N[C@@H](C)C(=O)O (some centres not stated) (Ac-VM[Sta(3ξ)]DAEA-OH)
1.2 µM	CSCC[C@H](NC(=O)[C@@H](NC(C)=O)C(C)C)C(=O)N[C@@H](CC(C)C)C(O)CC(=O)N[C@H](C(=O)N[C@@H](C)C(=O)N[C@@H](CCC(=O)O)C(=O)N[C@@H](C)C(=O)O)C(C)C (some centres not stated) (Ac-VM[Sta(3ξ)]VAEA-OH)
20 µM	CSCC[C@H](NC(=O)[C@@H](NC(C)=O)C(C)C)C(=O)N[C@@H](CC(C)C)C(O)CC(=O)N[C@H](C(=O)N[C@@H](C)C(=O)N[C@@H](CCC(=O)O)C(=O)N[C@@H](C)C(=O)O)C(C)(C)C (some centres not stated) (Ac-VM[Sta(3ξ)][Tle]AEA-OH)
15 µM	CSCC[C@H](NC(=O)[C@@H](NC(C)=O)C(C)C)C(=O)NC(CC(C)C)C(O)CC(=O)N[C@@H](Cc1ccccc1)C(=O)N[C@@H](C)C(=O)N[C@@H](CCC(=O)O)C(=O)N[C@@H](Cc1ccccc1)C(=O)O (some centres not stated) (Ac-VM[X1]FAEF-OH)
1 µM	CSCC[C@H](NC(=O)[C@@H](NC(C)=O)C(C)C)C(=O)NC(CC(C)C)C(O)CC(=O)N[C@H](C(=O)N[C@@H](C)C(=O)N[C@@H](CCC(=O)O)C(=O)O)C(C)C (some centres not stated) (Ac-VM[X1]VAE-OH)
0.5 µM	CSCC[C@H](NC(=O)[C@@H](NC(C)=O)C(C)C)C(=O)N[C@@H](Cc1ccccc1)C(O)CC(=O)N[C@H](C(=O)N[C@@H](C)C(=O)N[C@@H](CCC(=O)O)C(=O)N[C@@H](Cc1ccccc1)C(=O)O)C(C)C (some centres not stated) (Ac-VM[X4]VAEF-OH)
5 µM	CSCC[C@H](NC(=O)[C@@H](NC(C)=O)C(C)C)C(=O)N[C@@H](CC1CCCCC1)C(O)CC(=O)N[C@H](C(=O)N[C@@H](C)C(=O)N[C@@H](CCC(=O)O)C(=O)N[C@@H](Cc1ccccc1)C(=O)O)C(C)C (some centres not stated) (Ac-VM[X5]VAEF-OH)
2.5 µM	CC(C)C[C@H](NC(=O)[C@H](CC(N)=O)NC(=O)[C@H](C)NC(=O)[C@@H](N)CCC(=O)O)C(O)CC(=O)N[C@H](C(=O)N[C@@H](C)C(=O)N[C@@H](CCC(=O)O)C(=O)N[C@@H](Cc1ccccc1)C(=O)O)C(C)C (some centres not stated) (H-EAN[Sta(3ξ)]VAEF-OH)
40 µM	CC[C@H](C)[C@H](NC(=O)[C@H](CCC(=O)O)NC(=O)[C@H](CCC(=O)O)NC(=O)[C@@H](NC(=O)[C@@H](N)CCCCN)[C@@H](C)O)C(=O)N[C@@H](CO)C(=O)N[C@@H](CCC(=O)O)C(=O)N[C@H](C(=O)N[C@@H](CC(N)=O)C(=O)N[C@@H](CC(C)C)[C@@H](O)CC(=O)N[C@@H](CC(=O)O)C(=O)N[C@@H](C)C(=O)N[C@@H](CCC(=O)O)C(=O)N[C@@H](Cc1ccccc1)C(=O)O)C(C)C (H-KTEEISEVN[Sta]DAEF-OH)
0.03 µM	CC[C@H](C)[C@H](NC(=O)[C@H](CCC(=O)O)NC(=O)[C@H](CCC(=O)O)NC(=O)[C@@H](NC(=O)[C@@H](N)CCCCN)[C@@H](C)O)C(=O)N[C@@H](CO)C(=O)N[C@@H](CCC(=O)O)C(=O)N[C@H](C(=O)N[C@@H](CC(N)=O)C(=O)N[C@@H](CC(C)C)[C@@H](O)CC(=O)N[C@H](C(=O)N[C@@H](C)C(=O)N[C@@H](CCC(=O)O)C(=O)N[C@@H](Cc1ccccc1)C(=O)O)C(C)C)C(C)C (H-KTEEISEVN[Sta]VAEF-OH)
> 150 µM	CC(C)CC(NC(=O)[C@@H](N)CC(N)=O)C(O)CC(=O)N[C@H](C(=O)N[C@@H](C)C(=O)N[C@@H](CCC(=O)O)C(=O)N[C@@H](Cc1ccccc1)C(=O)O)C(C)C (some centres not stated) (H-N[X1]VAEF-OH)
9 µM	CC(C)C[C@H](NC(=O)[C@H](CC(N)=O)NC(=O)[C@@H](N)C(C)C)C(O)CC(=O)N[C@H](C(=O)N[C@@H](C)C(=O)N[C@@H](CCC(=O)O)C(=O)N[C@@H](Cc1ccccc1)C(=O)O)C(C)C (some centres not stated) (H-VN[Sta(3ξ)]VAEF-OH)
> 200 µM	H-TNIKTEEISEVNFDAEFR-OH
> 200 µM	H-TNIKTEEISEVNHDAEFR-OH
> 200 µM	H-TNIKTEEISEVNLAAEFR-OH
> 200 µM	H-TNIKTEEISEVNLDAEFR-OH
40 µM	H-TNIKTEEISEVNLFAEFR-OH
119 µM	H-TNIKTEEISEVNLGAEFR-OH
3 µM	H-TNIKTEEISEVNLVAEFR-OH
> 200 µM	H-TNIKTEEISEVNRDAEFR-OH
> 200 µM	H-TNIKTEEISEVNTDAEFR-OH
> 200 µM	H-TNIKTEEISEVNVDAEFR-OH

From ChEMBL document CHEMBL1135590, “Design of substrate-based inhibitors of human beta-secretase” (J Med Chem, 2002)
